Series [1] deals with SULT2B1b (Homo sapiens (Human), UniProt O00204). The experiment in a line: Coupled chromogenic SULT2B1b inhibition assay. The format is biochemical. Particulars: for IC50: coupled chromogenic in vitro assay, optimized conditions, mean±s.e.m., n=3. On the procedure: Optimized Coupled Chromogenic SULT2B1b Activity Assay. For 96-well Format: Working concentrations of IMPAD1 (0.1 mg/mL in 1× activity assay buffer), PAPS (1 mM in 1× activity assay buffer), and DHEA (2.5 mM in DMSO) were prepared. Two technical replicates were assayed for each sample. Reaction mixes were prepared by mixing 10 μL PAPS stock solution, 10 μL IMPAD1 stock solution, 4 μL 2.5 mM DHEA or DMSO, and 16 μL activity assay buffer to make […] reaction mix. Amount of reaction mix was scaled accordingly to number of samples assayed. 25 μL of reaction mix was dispensed to each well. SULT2B1b was diluted to 1.5 μg/μL in protein storage buffer then down to 0.8 μg/μL in 1X activity assay buffer. 25 μL of 0.8 μg/μL SULT2B1b was added to each well. The reaction was incubated at 37° C. for 45 minutes, then quenched by addition of 30 μL of malachite green solution A, followed by addition of 30 μL of malachite green solution B. The plate was left at room temperature for 20 minutes for color stabilization, then absorbance was read at 620 nm. IMPAD1 activity control was 10 μL of 0.1 mg/mL IMPAD1 mixed with 40 μL activity assay buffer. 25 μL of the IMPAD1 dilution was added to 25 μL of 0.1 mM PAP.
Coupled Chromogenic SULT2B1b Inhibition Assay. For 96-well Format: Working stock solutions of IMPAD1 (0.1 mg/mL in 1× activity assay buffer), PAPS (1 mM in 1X activity assay buffer), compound of interest (5 mM in DMSO) and DHEA (5 mM in DMSO) were prepared. Two technical replicates were assayed for each sample. […] The reaction was incubated at 37° C. for 45 minutes, then quenched by addition of 30 μL of malachite green solution A, followed by addition of 30 μL of malachite green solution B. The plate was left at room temperature for 20 minutes for color stabilization, then absorbance was read at 620 nm. […]
Percent inhibition was calculated as: 100−[100×[(Phosphate produced per wellaverage,compound of interest−Phosphate produced per wellaverage, DMSO)/(Phosphate produced per wellaverage, DHEA−Phosphate produced per wellaverage, DMSO)]]. […]

Series [2] relates to T47D cells. The series can be described thus: Alamar blue cellular cytotoxicity, T47D. It counts as cell-based. The settings on record: 72 hours. On the procedure:
Alamar Blue Fluorescence for Cellular Activity (IC50). Cells were seeded per well in a 96-well plate (5000 for MCF-7, 4000 for T47D, 7000 for mouse embryonic fibroblasts) and allowed to adhere before DMSO solutions of compounds were added to each well. Final concentration of DMSO in each well is 1%, final volume: 100 μL. At the end of 72 hours, Alamar Blue solution was added (10 μL of 1 mg resazurin per 10 mL PBS). After 2-4 hours incubation, fluorescence (λexcit.=555 nm, λemission.=585 nm) was measured. The fluorescence of each well was read with a SpectraMax M3 plate reader (Molecular Devices). Percent dead was determined by comparison to a 100% dead control: 100 μM Raptinal treated cells.
On the technique in general: Resazurin is reduced to fluorescent resorufin, in cell work by metabolically active cells.

SULT2B1b, sequence (O00204 whole entry): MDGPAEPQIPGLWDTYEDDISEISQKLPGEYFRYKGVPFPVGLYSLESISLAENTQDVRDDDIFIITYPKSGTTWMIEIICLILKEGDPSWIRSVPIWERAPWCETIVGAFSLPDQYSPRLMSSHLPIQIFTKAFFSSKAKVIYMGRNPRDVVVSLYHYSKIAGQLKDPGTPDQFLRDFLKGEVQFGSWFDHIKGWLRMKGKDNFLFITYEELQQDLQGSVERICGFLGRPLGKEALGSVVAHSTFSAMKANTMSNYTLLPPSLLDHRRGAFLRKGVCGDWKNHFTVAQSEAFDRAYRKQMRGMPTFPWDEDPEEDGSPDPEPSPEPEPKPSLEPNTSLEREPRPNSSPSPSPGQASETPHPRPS

By IC50 is commonly meant the concentration that gives 50% inhibition. A higher IC50 goes with lower potency. `C[C@]12CC[C@H](O)CC1=CC[C@@H]1[C@@H]2CC[C@]2(C)C(n3cnc4ccccc43)=CC[C@@H]12` [Compound 2, Galeterone, reference compound] displayed an IC50 in series [1] of 41 ± 7 µM.
Take `C[C@]12CCC(=O)N(Cc3ccc(Br)cc3)C1=CC[C@@H]1[C@@H]2C(=O)C[C@]2(C)C(=O)CC[C@@H]12` [Compound 3, (4aR,4bS,6aS,9aS,9bS)-1-(4-bromobenzyl)-4a,6a-dimethyl-3,4,4a,6,6a,8,9,9a,9b,10-decahydro-1H-indeno[5,4-f]quinoline-2,5,7(4bH)-trione]: the “suitable sub-lethal treatment concentration” value in series [2] was found to be 6.25 µM.
With `C[C@]12CCC(=O)N(Cc3ccc(Cl)cc3)C1=CC[C@@H]1[C@@H]2C(=O)C[C@]2(C)C(=O)CC[C@@H]12` [Compound 1, (4aR,4bS,6aS,9aS,9bS)-1-(4-chlorobenzyl)-4a,6a-dimethyl-3,4,4a,6,6a,8,9,9a,9b,10-decahydro-1H-indeno[5,4-f]quinoline-2,5,7(4bH)-trione], the IC50 in series [1] came out at 34 ± 4 µM. In series [1] (initial medium throughput screen), this compound had a percent inhibition of 48%. Further, the “suitable sub-lethal treatment concentration” value in series [2] amounted to 6.25 µM.

Source of the values: patent publication US20240400606A1, “SMALL MOLECULE ACTIVATORS OF THE IMMUNE SYSTEM” (THE BOARD OF TRUSTEES OF THE UNIVERSITY OF ILLINOIS, priority 2021, published 2024).
